The values below come from paper PMC11758220, “Identification of a Privileged Scaffold for Inhibition of Sterol Transport Proteins through the Synthesis and Ring Distortion of Diverse, Pseudo-Natural Products” (ACS Central Science, 2025).

One assay has as its target T1, ORP1 (Homo sapiens, UniProt Q9BXW6).
T1 construct: ORP1(534-950); host or cells: E. coli BL21(DE3)
T1 sequence (Q9BXW6 534-950): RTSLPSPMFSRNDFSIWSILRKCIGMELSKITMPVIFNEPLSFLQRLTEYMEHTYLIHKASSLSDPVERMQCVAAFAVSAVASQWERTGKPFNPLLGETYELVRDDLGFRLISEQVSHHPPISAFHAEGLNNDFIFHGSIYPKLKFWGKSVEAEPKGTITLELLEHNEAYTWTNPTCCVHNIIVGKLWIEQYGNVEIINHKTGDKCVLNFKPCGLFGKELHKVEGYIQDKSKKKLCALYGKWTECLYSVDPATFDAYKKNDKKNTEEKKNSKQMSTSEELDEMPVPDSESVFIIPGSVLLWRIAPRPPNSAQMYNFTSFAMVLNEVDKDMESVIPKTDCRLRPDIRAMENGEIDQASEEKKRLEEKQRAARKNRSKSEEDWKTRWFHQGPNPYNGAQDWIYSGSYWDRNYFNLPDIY
Put plainly: Fluorescence polarisation (FP) competition with NBD-cholesterol, ORP1. It is filed as binding. Particulars: for IC50: mean of three experiments run in technical duplicates; for inhibition at 10 µM / ORP1 (FP) inhibition: single dose, Dose = 10 µM. The source says:
Protein expression constructs
Human ASTER domains of Aster-A(359-547), -B(364-552) and -C(318-504) were subcloned into a pGEX-6p-2rbs vector, thus introducing the cloning artifact ‘GPLGS’.3 The pGEX-6P-1-GST-OSBP(377- […]
a gift from James H. Hurley (University of California).4 The pHIS_2His6_Thrombin_STARD4(2-205;C75S) plasmid was a gift from Young Jun Im (Chonnam National University).5 STARD5A was a gift from Nicola Burgess-Brown (Addgene plasmid #42392; http://n2t.net/addgene:42392; […]
Protein expression and purification […]
vectors including an N-terminal PreScission-cleavable glutathione S-transferase (GST)-tag were expressed in Escherichia coli (E. coli) OverExpress C41 in Terrific Broth (TB) medium for 16 h at 18 °C after the induction with 0.1 mM isopropyl β-D-1-thiogalactopyranoside (IPTG). Cells were harvested at 3500 × g for 15 minutes and lysed by sonication in buffer containing 50 mM HEPES pH 7.5, 300 mM NaCl, 10 %v/v glycerol, 5 mM dithiothreitol (DTT), 0.1 %v/v Triton X-100 and protease inhibitor mix HP plus (Serva). The lysate was purified by affinity chromatography on a GSTrap FF column (Cytiva) using an ÄKTA Start (Cytiva) in buffer containing 50 mM HEPES pH 7.5, 300 mM NaCl, 10 %v/v glycerol, 5 mM DTT and 0.01 %v/v Triton X-100. The GST-tag was cleaved overnight on the column at 4 °C. The Aster sterol binding domains were further purified by size-exclusion chromatography (SEC) on a HiLoad 16/600 Superdex 75 pg (Cytiva) in buffer containing 20 mM HEPES pH 7.5, 300 mM NaCl, 10 %v/v […]
STARD5(6-213) harboring an N-terminal His6-Tag were expressed in E. coli BL21(DE3) in Luria-Bertani Broth (LB) medium for approximately 16 h at 18 °C after induction with 0.15 mM IPTG. Cells were harvested at 3500 × g for 15 minutes and lysed by sonication in buffer containing 50 mM HEPES pH 7.5, 150 mM NaCl, 5 %v/v glycerol, 5 mM DTT, 0.1 %v/v Triton X -100 and ethylenediaminetetraacetic acid (EDTA)-free protease inhibitor cocktail (Sigma-Aldrich). The cleared lysate was purified by affinity chromatography on a Ni-NTA Superflow Cartridge (Qiagen) using an ÄKTA Start (Cytiva) in buffer containing 50 mM HEPES pH 7.5, 150 mM NaCl, 5 %v/v glycerol, 5 mM DTT. START domains were eluted by using elution buffer containing 50 mM HEPES pH 7.5, 150 mM NaCl, 5 %v/v glycerol, 5 mM DTT and 500 mM imidazole. Proteins were further purified by SEC on a HiLoad 16/600 Superdex 75 pg (Cytiva) in buffer containing 20 mM HEPES pH 7.5, 150 mM NaCl, 5 %v/v glycerol and 2 mM DTT.
The ORP domain of human OSBP(377-807) in the pGEX-6p-1 vector with an N-terminal PreScission-cleavable GST-tag was expressed in E. coli OverExpress C41 in LB medium for 16 h at 18 °C after induction with 0.1 mM IPTG. Cells were harvested at 3500 × g for 15 minutes and lysed by sonication in buffer containing 20 mM HEPES pH 7.5, 300 mM NaCl, 10 %v/v glycerol, 5 mM DTT, 0.1 %v/v Triton X-100 and EDTA-free protease inhibitor cocktail (Sigma-Aldrich). The cleared lysate was purified by affinity chromatography on a GSTrap HF column (Cytiva) using an ÄKTA Start (Cytiva) in buffer containing 20 mM HEPES pH 7.5, 300 mM NaCl, 10 %v/v glycerol, 5 mM DTT. OSBP(377 -807) was eluted by using elution buffer containing 20 mM HEPES pH 7.5, 300 mM NaCl, 10 %v/v glycerol, 5 mM DTT and 10 mM reduced glutathione. Proteins were further purified by SEC on a HiLoad 16/600 Superdex 75 pg (Cytiva) using an ÄKTA Explorer (Cytiva) in buffer containing 20 mM HEPES pH 7.5, 150 mM NaCl, 10 %v/v glycerol and 2 mM DTT.
The ORP domains of human ORP1(534-950) in pET24b(+) and ORP2(49-480) in the pET24b(+) vector including an N-terminal His6-Tag were expressed in E. coli BL21(DE3) in TB medium for approximately 16 h at 18 °C after induction with 0.1 mM IPTG. Cells were collected at 3500 × g for 15 minutes and lysed by sonification in buffer containing 10 mM Tris-HCl pH 8, 300 mM NaCl, 5 % glycerol, 2 mM DTT, 0.1 % Triton X-100 and EDTA-free protease inhibitor cocktail (Sigma-Aldrich). The cleared […]
(In general: Fluorescence polarisation rises when a labelled molecule tumbles more slowly, as on binding a larger partner.)

Another assay addresses T2, STARD1 (Homo sapiens, UniProt P49675).
T2 construct: STARD1(66-284); made in house; host or cells: E. coli BL21(DE3)
T2 sequence (P49675 66-284): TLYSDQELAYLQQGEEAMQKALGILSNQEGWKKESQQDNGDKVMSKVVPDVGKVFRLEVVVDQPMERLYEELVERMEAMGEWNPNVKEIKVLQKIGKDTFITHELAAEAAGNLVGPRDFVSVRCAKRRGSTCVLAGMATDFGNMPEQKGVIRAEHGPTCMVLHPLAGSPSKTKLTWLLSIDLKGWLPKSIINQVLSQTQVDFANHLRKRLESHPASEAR
In words: Fluorescence polarisation (FP) competition with NBD-cholesterol, STARD1. It counts as binding. Particulars: for IC50: mean of three experiments run in technical duplicates; for inhibition at 10 µM / STARD1 (FP) inhibition: single dose, Dose = 10 µM.

Turning to `CC12CCC3CC1CCC21C(=Nc2ccc(N4CCOCC4)cc21)O3` (racemic) [Compound 19a], the IC50 at ORP1 and at STARD1 was over 80 µM in each case. Also, the figures for the inhibition at 10 µM on ORP1 and on STARD1 were 0% and 20%, respectively.

With `CC(C)(C)OC(=O)N1CCN(c2ccc3c(c2)C24CCC5CC(CCC52C)OC4=N3)CC1` (stereo not drawn) [Compound 19e], the values for the inhibition at 10 µM on ORP1 and at STARD1 were 41.7% and 25%, respectively.

For the compound `CC12CCC(O)CC1CCc1c2[nH]c2ccc(C(F)(F)F)cc12` (stereo not drawn) [Compound 10g], the inhibition at 10 µM on ORP1 was 39.2%; at STARD1 it was -35%.

Turning to `CC12CCC3CC1CCC21C(=Nc2ccc(Br)cc21)O3` (single isomer, unassigned; (+)) [(+)-15b], at ORP1, the IC50 is over 80 µM and the inhibition at 10 µM turned out to be 0%. In addition, on STARD1, the half-inhibitory concentration (IC50) was over 80 µM and the inhibition at 10 µM turned out to be 7%.

`Cc1cc2nc3c(nc2cc1C)[C@@]1(C)CC[C@@H](O)C[C@H]1CC3` [Compound 7b]: the inhibition at 10 µM on ORP1 came to 0%; on STARD1, 12%.

In the case of `Cc1ccc2[nH]c3c(c(=O)c2c1)C[C@@H]1C[C@H](O)CC[C@]31C` [Compound 12], the inhibition at 10 µM on ORP1 was -6.7%; on STARD1 it was 5%.

Regarding `COc1ccc(-c2nc3c(s2)CC[C@@H]2C[C@H](O)CC[C@]32C)cc1` [Compound 8d], the inhibition at 10 µM at ORP1 came to 66.7%; on STARD1, 42%.

Consider `Cc1c2c(nc3ccccc13)[C@@]1(C)CC[C@@H](O)C[C@H]1CC2` [Compound 2a], for which the inhibition at 10 µM at ORP1 came out at 53.3%; at STARD1, 30%.

`Cc1ccc2c(c1)C(=O)CC[C@@H]1C[C@H](O)CC[C@]1(C)C(=O)N2` [Compound 11c]: the inhibition at 10 µM was -8.3% on ORP1 and 25% on STARD1.

Regarding `CC12CCC3CC1CCC21C(=Nc2ccc(N4CCOCC4)cc21)O3` (single isomer, unassigned; (+)) [(+)-19a], at ORP1, the IC50 is over 80 µM and the “ORP1 (FP) inhibition” value is recorded as -3.3%. At STARD1, the concentration for half-maximal inhibition (IC50) was over 80 µM and the “STARD1 (FP) inhibition” value turned out to be 12%.

`C[C@]12CC[C@@H](O)C[C@H]1CCC(=O)c1cc(Cl)cc(F)c1NC2=O` [Compound 11f]: the “ORP1 (FP) inhibition” value on ORP1 was -6.7%. Besides, the “STARD1 (FP) inhibition” value at STARD1 was -3.33%.

In the case of `C[C@]12CC[C@@H](O)C[C@H]1CCc1sc(-c3ccc(F)cc3)nc12` [Compound 8e], on ORP1, the “ORP1 (FP) inhibition” value is on record as 31.7%. The “STARD1 (FP) inhibition” value on STARD1 is reported as 17%.

For the compound `C[C@]12CC[C@@H]3C[C@H]1CC[C@@]21C(=Nc2ccc(N4CCN(Cc5ccncc5)CC4)cc21)O3` [Compound 24], on ORP1, the IC50 is over 50 µM and the inhibition at 10 µM amounted to 112%. Besides, the inhibition at 10 µM on STARD1 came out at 5%.

`Cc1ccc2c(c1)[C@@]13CC[C@@H]4C[C@@H](CC[C@@]41C)OC3=N2` [Compound 15e]: the inhibition at 10 µM on ORP1 is 8.3%; at STARD1, 45%.

Regarding `C[C@]12CC[C@@H](O)C[C@H]1CCC(=O)c1cc(C(F)(F)F)ccc1NC2=O` [Compound 11e], the values for the inhibition at 10 µM at ORP1 and on STARD1 were -3.3% and 10%, respectively.

As to `Cc1ccc2[nH]c3c(c2c1)CC[C@@H]1C[C@H](O)CC[C@]31C` [Compound 10e], the inhibition at 10 µM on ORP1 is 27.5%; at STARD1 it was -3.33%.

Consider `C[C@]12CC[C@@H](O)C[C@H]1CCC(=O)c1ccccc1NC2=O` [Compound 11a], for which, on ORP1, the “ORP1 (FP) inhibition” value is given as -2.5%. Besides, the “STARD1 (FP) inhibition” value on STARD1 turned out to be 7%.

`CCCCCN(c1ccc2c(c1)[C@@]13CC[C@@H]4C[C@@H](CC[C@@]41C)OC3=N2)c1ccc2c(c1)[C@@]13CC[C@@H]4C[C@@H](CC[C@@]41C)OC3=N2` [Compound 20b]: the “ORP1 (FP) inhibition” value on ORP1 is given as -1.7%. For the same compound, at STARD1, the “STARD1 (FP) inhibition” value was -18%.

Turning to `COc1ccc2c(c1)C(=O)CC[C@@H]1C[C@H](O)CC[C@]1(C)C(=O)N2` [Compound 11d], the inhibition at 10 µM is -3.3% at ORP1 and 5% on STARD1.

With `C[C@]12CC[C@@H](O)C[C@H]1CCC[C@]21NC(=O)c2ccccc2N1` [Compound 5a], on ORP1, the “ORP1 (FP) inhibition” value turned out to be 0.0% and the inhibition at 10 µM was -2.5%. On STARD1, the “STARD1 (FP) inhibition” value is 1.67% and the inhibition at 10 µM was -1.67%.

`CCOC(=O)c1ccc2[nH]c3c(c2c1)CC[C@@H]1C[C@H](O)CC[C@]31C` [Compound 10k]: the “ORP1 (FP) inhibition” value on ORP1 came to 10.0%. The “STARD1 (FP) inhibition” value on STARD1 was -12%.

As to `C[C@]12CC[C@@H]3C[C@H]1CC[C@@]21C(=Nc2ccc(F)cc21)O3` [Compound 15d], the inhibition at 10 µM on ORP1 was determined as 11.7%; at STARD1, 17%.

On to `COc1ccc2[nH]c3c(c2c1)CC[C@@H]1C[C@H](O)CC[C@]31C` [Compound 10f], for which the inhibition at 10 µM was 11.7% on ORP1 and -1.67% at STARD1.

Consider `COc1ccc2c(c1)[C@]1(O)CC[C@@H]3C[C@H](O)CC[C@]3(C)C1=N2` [Compound 14b], for which the figures for the inhibition at 10 µM on ORP1 and at STARD1 were 0% and 10%, respectively.

With `C[C@]12CC[C@@H]3C[C@H]1CC[C@@]21C(=Nc2ccc(Br)cc21)O3` (racemic) [Compound 15b], on ORP1, the half-maximal inhibitory concentration (IC50) was 20.9 µM and the inhibition at 10 µM was 60%. Also, on STARD1, the concentration for half-maximal inhibition (IC50) was over 80 µM and the inhibition at 10 µM worked out at 27%.

Turning to `Cc1c2c(nc3cc(Br)ccc13)[C@@]1(C)CC[C@@H](O)C[C@H]1CC2` [Compound 2c], the “ORP1 (FP) inhibition” value on ORP1 was determined as 81.7%. For the same compound, the “STARD1 (FP) inhibition” value on STARD1 is listed as 70%.

As usually defined, the IC50 is the concentration needed to halve the response being measured. Higher therefore signals lower potency. For orientation: inhibition means the drop in the measured response relative to a control, in per cent.
